Where “and” joins values, the source holds several entries; their conditions need not be identical. Equal values may be shown once.
Test system: A498 complex spheroid viability
Assay: Anticancer human tumor A498 cell line growth inhibition;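 further: spheroids exposed to agents for seven days before readout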;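 on viability, T/C: 100% = DMSO vehicle-treated spheroids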
Conditions: for viability, T/C: stronger effect = lower value
Method in brief: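 Multicellular complex spheroids of tumor cells with human endothelial cells (HUVEC) and mesenchymal stem cells; the LSD1 inhibitor iadademstat was combined with standard-of-care or investigational agents. Top concentration at or near clinical Cmax, half-log dilutions; final DMSO ≤0.25%.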

[1] = curve of first compound, second compound 0.1 µM
[2] = curve of first compound, second compound 0.316 µM
[3] = curve of first compound, second compound 1 µM
[4] = curve of first compound, second compound 3.16 µM
[5] = curve of first compound, second compound 10 µM
[6] = second compound 0.1 µM, first compound 0.00949 µM
[7] = second compound 0.1 µM, first compound 0.03 µM
[8] = second compound 0.1 µM, first compound 0.0949 µM
[9] = second compound 0.1 µM, first compound 0.3 µM
[10] = second compound 0.1 µM, first compound 0.949 µM
[11] = second compound 0.1 µM, first compound 3 µM
[12] = second compound 0.316 µM, first compound 0.00949 µM
[13] = second compound 0.316 µM, first compound 0.03 µM
[14] = second compound 0.316 µM, first compound 0.0949 µM
[15] = second compound 0.316 µM, first compound 0.3 µM
[16] = second compound 0.316 µM, first compound 0.949 µM
[17] = second compound 0.316 µM, first compound 3 µM
[18] = second compound 1 µM, first compound 0.00949 µM
[19] = second compound 1 µM, first compound 0.03 µM
[20] = second compound 1 µM, first compound 0.0949 µM
[21] = second compound 1 µM, first compound 0.3 µM
[22] = second compound 1 µM, first compound 0.949 µM
[23] = second compound 1 µM, first compound 3 µM
[24] = second compound 3.16 µM, first compound 0.00949 µM
[25] = second compound 3.16 µM, first compound 0.03 µM
[26] = second compound 3.16 µM, first compound 0.0949 µM
[27] = second compound 3.16 µM, first compound 0.3 µM
[28] = second compound 3.16 µM, first compound 0.949 µM
[29] = second compound 3.16 µM, first compound 3 µM
[30] = second compound 10 µM, first compound 0.00949 µM
[31] = second compound 10 µM, first compound 0.03 µM
[32] = second compound 10 µM, first compound 0.0949 µM
[33] = second compound 10 µM, first compound 0.3 µM
[34] = second compound 10 µM, first compound 0.949 µM
[35] = second compound 10 µM, first compound 3 µM

With `Nc1ccccc1NC(=O)c1ccc(CNC(=O)OCc2cccnc2)cc1` + NC1CCC(NC2CC2c2ccccc2)CC1 the IC50 [1] was 0.203 µM, the IC50 [2] was 0.222 µM and the IC50 [3] was 0.215 µM. For the same compound, the IC50 [4] was 0.177 µM, the IC50 [5] was 0.214 µM and the viability, T/C [6] was 80.6%. For the same compound, the viability, T/C [7] was 76%, the viability, T/C [8] was 65.8% and the viability, T/C [9] was 42.1%. The viability, T/C [10] was 15.4%, the viability, T/C [11] was 1.76% and the viability, T/C [12] was 86.7%. For the same compound, the viability, T/C [13] was 83.8%, the viability, T/C [14] was 66.4% and the viability, T/C [15] was 44.6%. The viability, T/C [16] was 17%, the viability, T/C [17] was 1.4% and the viability, T/C [18] was 76.8%. The viability, T/C [19] was 79.6%, the viability, T/C [20] was 68.4% and the viability, T/C [21] was 40.9%. For the same compound, the viability, T/C [22] was 17.2%, the viability, T/C [23] was 1.13% and the viability, T/C [24] was 73.6%. It also gave a viability, T/C [25] of 67.3%, a viability, T/C [26] of 59.8% and a viability, T/C [27] of 42.7%. The viability, T/C [28] was 16%, the viability, T/C [29] was 0.8% and the viability, T/C [30] was 62%. The viability, T/C [31] was 59.3%, the viability, T/C [32] was 57.4% and the viability, T/C [33] was 47%. It also gave a viability, T/C [34] of 16.3% and a viability, T/C [35] of 0.91%.
With `Cn1ncnc1C1c2n[nH]c(=O)c3cc(F)cc(c23)NC1c1ccc(F)cc1` (configuration not stated) the viability, T/C (compound 0.000316 µM) was 98.4% and 110%, the viability, T/C (compound 0.001 µM) was 99.4% and 107% and the viability, T/C (compound 0.00316 µM) was 97.5% and 102%. The viability, T/C (compound 0.01 µM) was 106% and 103%, the viability, T/C (compound 0.0316 µM) was 95% and 99% and the viability, T/C (compound 0.1 µM) was 101% and 94.5%. It also gave an IC50 (curve of compound) of over 0.1 µM.
`Nc1ccccc1NC(=O)c1ccc(CNC(=O)OCc2cccnc2)cc1` + NC1CC1c1ccc(-c2cccc(O)c2)cc1 was tested, and the IC50 [1] was 0.357 µM, the IC50 [2] was 0.333 µM and the IC50 [3] was 0.284 µM. The IC50 [4] was 0.362 µM, the IC50 [5] was 0.266 µM and the viability, T/C [6] was 89.5%. The viability, T/C [7] was 88%, the viability, T/C [8] was 72.6% and the viability, T/C [9] was 59.2%. It also gave a viability, T/C [10] of 19.5%, a viability, T/C [11] of 1.7% and a viability, T/C [12] of 93.1%. It also gave a viability, T/C [13] of 95.4%, a viability, T/C [14] of 84.1% and a viability, T/C [15] of 50.6%. For the same compound, the viability, T/C [16] was 21.1%, the viability, T/C [17] was 1.7% and the viability, T/C [18] was 88.3%. For the same compound, the viability, T/C [19] was 89.3%, the viability, T/C [20] was 77.7% and the viability, T/C [21] was 46%. It also gave a viability, T/C [22] of 20.6%, a viability, T/C [23] of 1.74% and a viability, T/C [24] of 81%. It also gave a viability, T/C [25] of 87.5%, a viability, T/C [26] of 78.2% and a viability, T/C [27] of 55.7%. The viability, T/C [28] was 19.2%, the viability, T/C [29] was 2.01% and the viability, T/C [30] was 86.2%. The viability, T/C [31] was 78.6%, the viability, T/C [32] was 70.7% and the viability, T/C [33] was 48.1%. For the same compound, the viability, T/C [34] was 19.4% and the viability, T/C [35] was 1.69%.
`CC(C)c1c(-c2ccccc2)nc2c(C#N)c[nH]n2c1=O` + NC1CCC(NC2CC2c2ccccc2)CC1 showed an IC50 [1] of over 10 µM, an IC50 [2] of over 10 µM and an IC50 [3] of over 10 µM. For the same compound, the IC50 [4] was over 10 µM, the IC50 [5] was over 10 µM and the viability, T/C (second compound 0.1 µM, first compound 0.0316 µM) was 88.3%. It also gave a viability, T/C (second compound 0.1 µM, first compound 0.1 µM) of 87.8%, a viability, T/C (second compound 0.1 µM, first compound 0.316 µM) of 89.3% and a viability, T/C (second compound 0.1 µM, first compound 1 µM) of 87.3%. The viability, T/C (second compound 0.1 µM, first compound 3.16 µM) was 91.3%, the viability, T/C (second compound 0.1 µM, first compound 10 µM) was 86.5% and the viability, T/C (second compound 0.316 µM, first compound 0.0316 µM) was 84%. For the same compound, the viability, T/C (second compound 0.316 µM, first compound 0.1 µM) was 85.8%, the viability, T/C (second compound 0.316 µM, first compound 0.316 µM) was 87% and the viability, T/C (second compound 0.316 µM, first compound 1 µM) was 87.8%. For the same compound, the viability, T/C (second compound 0.316 µM, first compound 3.16 µM) was 82.7%, the viability, T/C (second compound 0.316 µM, first compound 10 µM) was 85% and the viability, T/C (second compound 1 µM, first compound 0.0316 µM) was 88.8%. The viability, T/C (second compound 1 µM, first compound 0.1 µM) was 86.4%, the viability, T/C (second compound 1 µM, first compound 0.316 µM) was 89.2% and the viability, T/C (second compound 1 µM, first compound 1 µM) was 88.2%. It also gave a viability, T/C (second compound 1 µM, first compound 3.16 µM) of 86%, a viability, T/C (second compound 1 µM, first compound 10 µM) of 86.9% and a viability, T/C (second compound 3.16 µM, first compound 0.0316 µM) of 84%. It also gave a viability, T/C (second compound 3.16 µM, first compound 0.1 µM) of 79.9%, a viability, T/C (second compound 3.16 µM, first compound 0.316 µM) of 82.3% and a viability, T/C (second compound 3.16 µM, first compound 1 µM) of 87.6%. It also gave a viability, T/C (second compound 3.16 µM, first compound 3.16 µM) of 83.8%, a viability, T/C (second compound 3.16 µM, first compound 10 µM) of 82.4% and a viability, T/C (second compound 10 µM, first compound 0.0316 µM) of 64%. For the same compound, the viability, T/C (second compound 10 µM, first compound 0.1 µM) was 69.3%, the viability, T/C (second compound 10 µM, first compound 0.316 µM) was 66.3% and the viability, T/C (second compound 10 µM, first compound 1 µM) was 69.6%. It also gave a viability, T/C (second compound 10 µM, first compound 3.16 µM) of 66.4% and a viability, T/C (second compound 10 µM, first compound 10 µM) of 69.5%.
`Nc1ccn(C2OC(CO)C(O)C2(F)F)c(=O)n1` (configuration not stated) + NC1CC1c1ccc(-c2cccc(O)c2)cc1 was tested, and the IC50 [1] was under 0.000949 µM, the IC50 [2] was under 0.000949 µM and the IC50 [3] was under 0.000949 µM. For the same compound, the IC50 [4] was under 0.000949 µM, the IC50 [5] was under 0.000949 µM and the viability, T/C (second compound 0.1 µM, first compound 0.000949 µM) was 20.6%. For the same compound, the viability, T/C (second compound 0.1 µM, first compound 0.003 µM) was 28.4%, the viability, T/C [6] was 98.4% and the viability, T/C [7] was 36.4%. The viability, T/C [8] was 35.8%, the viability, T/C [9] was 31.5% and the viability, T/C (second compound 0.316 µM, first compound 0.000949 µM) was 22.6%. The viability, T/C (second compound 0.316 µM, first compound 0.003 µM) was 28.6%, the viability, T/C [12] was 112% and the viability, T/C [13] was 33.9%. For the same compound, the viability, T/C [14] was 35.3%, the viability, T/C [15] was 32.3% and the viability, T/C (second compound 1 µM, first compound 0.000949 µM) was 22.5%. For the same compound, the viability, T/C (second compound 1 µM, first compound 0.003 µM) was 26.8%, the viability, T/C [18] was 105% and the viability, T/C [19] was 35.5%. The viability, T/C [20] was 29.3%, the viability, T/C [21] was 30.6% and the viability, T/C (second compound 3.16 µM, first compound 0.000949 µM) was 22.6%. It also gave a viability, T/C (second compound 3.16 µM, first compound 0.003 µM) of 28.3%, a viability, T/C [24] of 94.6% and a viability, T/C [25] of 36.1%. It also gave a viability, T/C [26] of 30.3%, a viability, T/C [27] of 28.1% and a viability, T/C (second compound 10 µM, first compound 0.000949 µM) of 23.5%. For the same compound, the viability, T/C (second compound 10 µM, first compound 0.003 µM) was 28.2%, the viability, T/C [30] was 93.5% and the viability, T/C [31] was 40.7%. For the same compound, the viability, T/C [32] was 32.9% and the viability, T/C [33] was 29.4%.

Reference: PubChem BioAssay AID1918947 (Molecular Pharmacology Branch, DTP, NCI, 2023)
